Source: patent publication US10954549B2, “Detection and classification of an anticoagulant using a clotting assay” (Haemonetics Corporation, priority 2014, dated 2021)

Tests used:
Type in all cases: biochemical, human
citrated whole blood [1] = assay: TEG Kaolin test of blood spiked with anticoagulant; settings: for R value versus control reference range: reference range about 5 to about 10 minutes; for MA values versus control: all studied concentrations; for R, K, α, and MRTG parameters, statistical significance versus control: three concentrations per drug, Example 1; for MRTG / TMRTG: Kaolin
Description: (§1) The TEG clotting assay was used to determine if low, normal, and high doses of dabigatran, rivaroxaban, and apixaban could be detected in blood spiked with these compounds. Three oral anticoagulants (OAC), namely dabigatran, rivaroxaban, and apixaban, were spiked into blood obtained from 14 healthy volunteer human donors. For each OAC tested, citrated blood from three donors was spiked with three different concentrations of the active drug (i.e., the compound). The spiked blood samples and control samples spiked with diluent were tested with the TEG® 5000 Thrombelastograph® Hemostasis Analyzer (Haemonetics Corporation, Braintree, Mass., USA) using the Kaolin and RapidTEG® reagents (Haemonetics). Each sample was run in triplicate. All samples were tested with and without ecarin (purchased from Enzyme Research Laboratories, South Bend, IN). This study was IRB approved and all donors were over 18 and signed informed consent forms.
Dabigatran stock was prepared from the active dabigatran moiety (Alsachim, France) by dissolution in 0.1M HCl and further dilution in 1:1 DMSO:H20. […] Tubes of citrated blood were spiked with this dabigatran stock to create final concentrations of 500, 200, and 50 ng/mL of citrated whole blood.
Rivaroxaban stock was prepared by agitation of a 20 mg Xarelto tablet (Jannsen, Titusville, N.J.) in a 1:1 DMSO: H20 solution, which was diluted to a final concentration of 20 ng/uL rivaroxaban in 1:1 DMSO:H20. Tubes of citrated blood were spiked with this rivaroxaban stock to create final concentrations of 500, 89, and 22 ng/mL in citrated whole blood. […] Apixaban stock was prepared in a similar manner from a 2.5 mg Eliquis tablet (Bristol-Myers Squibb, New York, N.Y.), with final concentrations of 1000, 500, and 250 ng/mL in whole blood. Apixaban is approved for prevention of VTE in elective hip or knee replacement surgery (2.5 mg BID) and for prevention of stroke and systemic embolism in patients with non-valvular AF (5 mg BID) (see Bristol-Myers SP, EEIG. apixaban summary of product characteristics). […] Control samples, prepared for each tested drug, included a solvent control containing only citrated blood and the diluent used to dilute the drug stock, and an unadulterated citrate blood tube.
Testing was performed on TEG-5000 analyzers (Haemonetics Corp., Braintree, Mass., USA) using Kaolin vials, 0.2M CaCl2, RapidTEG (rTEG) vials, diluent water, and disposable clear cups and pins provided by the manufacturer (Haemonetics, Braintree, Mass.), and ecarin (Enzyme Research Laboratories, South Bend, Ind.). All testing was performed in triplicate at each dose, and allowed to continue until the MA (maximum amplitude) parameter defined. The various components of the TEG tracing are depicted in FIG. 3A. The Kaolin test generates an R parameter, which is measured in minutes, and is the time elapsed from the initiation of the test until the point where the onset of clotting provides enough resistance to produce a 2 mm amplitude reading on the TEG tracing. This parameter represents the initiation phase of coagulation related to the function of enzymatic clotting factors. The R parameter has a normal range of 5 to 10 min for kaolin. A prolonged R time indicates slower clot formation. K is a measurement of the time interval from the split point to the point where fibrin cross-linking provides enough clot resistance to produce a 20 mm amplitude reading. The α angle is the angle formed by the slope of a tangent line traced from the R to the K time and a central line measured in degrees. K time and the α angle denote the rate at which the clot strengthens, and is representative of thrombin's cleaving of the available fibrinogen into fibrin. The MA indicates the point at which clot strength reaches its maximum amplitude, measured in millimeters on the TEG tracing, and reflects the end result of maximal platelet-fibrin interaction via the GPIIb-IIIa receptors (see Khurana S et al., J Lab Clin Med. 130:401-411, 1997). […]

citrated whole blood [2] = assay: rTEG with ecarin test of spiked blood
Description: as §1
340 μL of the citrated blood sample was added to the cup with these two reagents, and the contents of the cup were mixed 3 times by drawing the contents of the cup up into the pipette and redispensing it into the cup. The test was started immediately after mixing and allowed to run until the MA parameter had defined. The rTEG with ecarin test was performed as the rTEG test above, using 20 μL of an ecarin/CaCl2 solution (0.16M CaCl2; 19EU/mL ecarin).

[3] = tested on: blood from healthy volunteers; assay: Thromboelastography R time of spiked blood in the presence of the FXa reagent; settings: in vitro spiking, increasing concentrations
Description: Blood from healthy volunteers known not to be taking any oral anticoagulant and without any other significant health issues are analyzed using the FXa or the Ecarin reagent in a TEG® hemostasis analyzer. The FXa reagent (i.e., the Factor Xa reagent) is used to detect the presence (or absence) of an anticoagulant in the blood component being tested. In absence of any oral anticoagulant, the FXa reagent will accelerate the clotting process and result in a very short R-time. In presence of direct thrombin inhibitors and/or anti-Factor Xa anticoagulant(s), the process is slowed down and will cause elongation of the R-time. This difference in R-time is utilized to detect the presence of the oral anticoagulant. The R-time generated from multiple donors was used to construct a reference range. Blood was spiked with either direct thrombin inhibitors or anti-Xa(s) at different concentrations and analyzed using the FXa reagent or the Ecarin reagent. The drug concentrations chosen represent the published therapeutic ranges for these two classes of drugs. This assay was repeated in multiple donors to account for possible donor variations.

[4] = tested on: blood from healthy volunteers; assay: Thromboelastography R time of spiked blood in the presence of the ecarin reagent
Description: Blood from healthy volunteers known not to be taking any oral anticoagulant and without any other significant health issues are analyzed using the FXa or the Ecarin reagent in a TEG® hemostasis analyzer.
The ecarin reagent is used to classify the type of anticoagulant. The R-time from the Ecarin assay is used to differentiate between the two available classes (Direct thrombin inhibitors and anti-Xa inhibitors). This ecarin reagent may be used in combination with the results from the FXa reagent to make a decision. A reference range will be generated from a sample healthy volunteer population (not on any drug) for this reagent.
The R-time generated from multiple donors was used to construct a reference range. Blood was spiked with either direct thrombin inhibitors or anti-Xa(s) at different concentrations and analyzed using the FXa reagent or the Ecarin reagent. The drug concentrations chosen represent the published therapeutic ranges for these two classes of drugs. This assay was repeated in multiple donors to account for possible donor variations.
The R time (in minutes) was compared to the R time obtained from donor blood with no oral anticoagulant (who is known not to be administered with an anticoagulant) treated with the ecarin reagent and measured using thromboelastography.
The R time (in minutes) was compared to the R time obtained from donor blood with no oral anticoagulant (i.e., taken from a patient who is known not to be administered with an anticoagulant) treated with the ecarin reagent and measured using thromboelastography.

[5] = blood spiked with 50 ng/ml dabigatran
[6] = blood spiked with 200 ng/ml dabigatran
[7] = blood spiked with 500 ng/ml dabigatran

Molecule: O=C(NC[C@H]1CN(c2ccc(N3CCOCC3=O)cc2)C(=O)O1)c1ccc(Cl)s1 [rivaroxaban, Rivaroxaban]
- R value versus control reference range (citrated whole blood [1]; 500 ng/ml (highest dosage)): outside of the normal (i.e., control) reference range
- MA values versus control (citrated whole blood [1]): did not change
- R time versus non-spiked blood sample (citrated whole blood [1]; highest concentration tested): significantly higher
- R value versus control reference range (citrated whole blood [1]; lower two doses (22 and 89 ng/ml)): within the control reference range
- R, K, α, and MRTG parameters, statistical significance versus control (citrated whole blood [1]): only achieved statistical significance for the higher concentrations
- TEG-ACT times on addition of ecarin to the RapidTEG test (citrated whole blood [2]): significantly decreases
- TMRTG times on addition of ecarin to the RapidTEG test (citrated whole blood [2]): significantly decreases
- RapidTEG α angle when ecarin was added (citrated whole blood [2]; any of the studied concentrations): did not change
- RapidTEG K values when ecarin was added (citrated whole blood [2]; middle concentration (89 ng/mL)): significantly decreased
- R-time compared to the reference range, FXa reagent [3]: dose dependent elongation of the R-time
- R time versus reference range of approximately 1 to 4.1 minutes ([4]; 50-350 ng/ml, ecarin): within the reference range

Molecule: dabigatran
- R value versus control reference range (citrated whole blood [1]; 50 ng/ml (lowest dosage)): outside of the normal (i.e., control) reference range
- R value, dose dependence (citrated whole blood [1]; 50, 200, 500 ng/ml): increases the R value of the tested blood components in a dose dependent manner
- R, α, and TMRTG parameters between concentrations (citrated whole blood [1]; 500, 200, 50 ng/mL): significantly different between all concentrations
- R time versus non-spiked blood sample (citrated whole blood [1]; all doses): significantly higher
- MA values versus control (citrated whole blood [1]): did not change
- MRTG (citrated whole blood [1]; [5]): 13 mm/min
- TMRTG (citrated whole blood [1]; [5]): 13 min
- MRTG (citrated whole blood [1]; [6]): 12 mm/min
- TMRTG (citrated whole blood [1]; [6]): 18 min
- MRTG (citrated whole blood [1]; [7]): 7 mm/min
- TMRTG (citrated whole blood [1]; [7]): 22 min
- R, K, α, and MRTG parameters, statistical significance versus control (citrated whole blood [1]): able to detect the presence of all tested concentrations
- TEG-ACT times on addition of ecarin to the RapidTEG test (citrated whole blood [2]): significantly decreases
- TMRTG times on addition of ecarin to the RapidTEG test (citrated whole blood [2]): significantly decreases
- MA value on addition of ecarin to the RapidTEG test (citrated whole blood [2]; 200 ng/mL, still within normal range): significantly decreased
- RapidTEG α angle when ecarin was added (citrated whole blood [2]; lowest concentrations (200 ng/mL, 50 ng/mL)): decrease of the angle value
- RapidTEG K values when ecarin was added (citrated whole blood [2]; middle concentration (200 ng/mL)): increased
- R-time compared to the reference range, FXa reagent [3]: dose dependent elongation of the R-time
- R time versus untreated R time of unspiked donor blood ([4]; 50 ng/ml, donor 126, ecarin reagent): two times longer
- R time relative to the reference range of 3.1 minutes ([4]; 50 ng/ml, donors 117, 127, and 146, ecarin): at least 1.25 times
- R time relative to the collective reference range of 3.1 minutes ([4]; 150 ng/ml, all four donors, ecarin): at least 1.25 times
